# Where a SMILES comes first, the peptide text is derived from it. [ ]: non-standard residue; d: D form. The star is where a group is joined. Phe(4-COOH) = N[C@@H](Cc1ccc(C(=O)O)cc1)C(=O)O; X1 = O=C(COCC(=O)*)Nc1ccc(CCC(=O)N2CCC2=O)cc1
# Legend:
# [1] = target: T1, human angiopoietin-2 protein (Homo sapiens, UniProt O15123); assay: Ang2 competitive ELISA (Ang-2 coated, Tie-2-Fc competition); type: binding
# T1 construct: purchased R&D Systems
# T1 sequence (O15123 19-496): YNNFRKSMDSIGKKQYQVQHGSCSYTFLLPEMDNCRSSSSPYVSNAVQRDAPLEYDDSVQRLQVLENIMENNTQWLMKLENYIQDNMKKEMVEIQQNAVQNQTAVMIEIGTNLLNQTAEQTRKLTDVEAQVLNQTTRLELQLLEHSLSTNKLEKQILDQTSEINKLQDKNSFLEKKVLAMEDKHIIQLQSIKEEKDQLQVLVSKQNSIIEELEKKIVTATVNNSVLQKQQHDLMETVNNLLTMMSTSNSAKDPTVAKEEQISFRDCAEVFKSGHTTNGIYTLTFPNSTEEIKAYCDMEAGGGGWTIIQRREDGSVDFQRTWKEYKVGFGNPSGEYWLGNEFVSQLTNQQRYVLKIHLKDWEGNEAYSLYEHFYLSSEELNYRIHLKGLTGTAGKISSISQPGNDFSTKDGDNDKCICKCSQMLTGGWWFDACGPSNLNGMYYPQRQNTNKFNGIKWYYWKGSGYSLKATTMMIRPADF
# Method: The ability of Ang2 binding compounds to interact with Ang2 was measured by competition with Tie-2. These tests were described in US2008166364 (and also in PCT/IE2007/000110), whose contents are herein incorporated by reference in their entirety. In particular, those portions of PCT/IE2007/000110 and US2008166364 detailing the advantages and disadvantages of various Ang2-binding peptides, and the advantages and disadvantages of covalently linking certain Ang2-binding peptides to catalytic antibodies (and those portions specifically relating to linking to h38C2), as well as the advantages and disadvantages of using specific residues of the respective Ang2-specific peptide as the linking residue (in this context, linking residue meaning the residue covalently linked to the linker (for example as used herein in Example 4)). For competitive ELISA, human angiopoietin-2 protein and Tie-2-Fc (R&D Systems) were reconstituted without carrier protein. Mouse anti-human Tie-2 (Pharmingen) was used as the primary antibody and goat anti-mouse-IgG 1-HRP (Pierce) was used as the secondary antibody. TMB substrate from Pierce was used.
# High-binding half-well plates were coated with Ang-2 (100 ng/well) in 50 W PBS and incubated at 4° C. overnight. […] Color development was monitored and stopped with 25 μl of 2 M H2SO4. OD450 nm with a correction wavelength of 540 nm was measured.
# [2] = Mouse half-life (T 1/2) and screening half-life of Ang2 binding compounds; type: in vivo, Swiss Webster mice
# Method: For “screening” T ½, test compounds were intravenously administered into male Swiss Webster mice. Blood samples were taken from 4 mice per time point via retroorbital sinus bleed at the following time points: 0.08, 5, and 32 hours. Blood level of test compounds were determined by ELISA. The data were reported as the percentage of test compounds at 32 hours versus 5 min. Normal T ½ was calculated in a similar fashion, after undergoing additional data analysis using WinNonlin version 4.1 (Pharsight Corporation). The data was fit to a model based upon the shape of the curve (i.e. a bi-exponential decline will be fit to a two compartment model, etc.) The criteria for best fit (i.e. lowest % CV) was based on iterative re-weighted least squares.
# [3] = target: T1, human angiopoietin-2 protein; assay: Ang2 reverse competition ELISA (Tie-2-Fc coated); type: binding; settings: Table 5, column T; read-out: Ang-2 T IC50
# Method: Plates were washed three times with washing buffer (0.1% Tween 20, PBS, pH 7.4) and blocked with Superblock, 150 μl/well at RT for 1 hour. Plates were washed three times. […] Plates were washed 3 times, and 50 W of streptavidin HRP (1:200 dilution in Superblock) was added at RT for 20 minutes. […] OD450 nm with a correction wavelength of 540 nm was measured.
molecule,measurement,setting,value
CSCC[C@H](NC(=O)[C@H](Cc1ccccc1)NC(=O)[C@H](CCC(N)=O)NC(=O)[C@H](CC(=O)O)NC(=O)[C@H](Cc1ccc(O)cc1)NC(=O)[C@H](CC(C)C)NC(=O)[C@@H](NC(=O)[C@H](CCCCN)NC(=O)[C@H](CC(=O)O)NC(=O)[C@H](CC(C)C)NC(=O)[C@H](CCC(=O)O)NC(=O)[C@H](CC(=O)O)NC(=O)[C@H](CC(C)C)NC(=O)[C@@H]1CCCN1C(=O)[C@H](CCC(N)=O)NC(=O)[C@H](Cc1ccc(O)cc1)NC(=O)[C@H](CCCCN)NC(=O)[C@H](CCC(N)=O)NC(C)=O)[C@@H](C)O)C(=O)N[C@@H](CC(C)C)C(=O)N[C@@H](CCC(N)=O)C(=O)N[C@@H](CCC(N)=O)C(=O)NCC(N)=O [Compound 4021],IC50,"[1]; Table 6, column P",36.4 nM
CSCC[C@H](NC(=O)[C@H](Cc1ccccc1)NC(=O)[C@H](CCC(N)=O)NC(=O)[C@H](CC(=O)O)NC(=O)[C@H](Cc1ccc(C(=O)O)cc1)NC(=O)[C@H](CC(C)C)NC(=O)[C@@H](NC(=O)[C@H](CCCCNC(=O)COCC(=O)Nc1ccc(CCC(=O)N2CCC2=O)cc1)NC(=O)[C@H](CC(=O)O)NC(=O)[C@H](CC(C)C)NC(=O)[C@H](CCC(=O)O)NC(=O)[C@H](CC(=O)O)NC(=O)[C@H](CC(C)C)NC(=O)[C@@H]1CCCN1C(=O)[C@H](CCC(N)=O)NC(=O)[C@H](Cc1ccc(O)cc1)NC(=O)[C@H](CC(N)=O)NC(=O)[C@H](CCC(N)=O)NC(C)=O)[C@@H](C)O)C(=O)N[C@@H](CC(C)C)C(=O)N[C@@H](CCC(N)=O)C(=O)N[C@@H](CCC(N)=O)C(=O)NCC(N)=O [Compound 4057] (Ac-QNYQPLDELDK(X1)TL[Phe(4-COOH)]DQFMLQQG-NH2),half-life,"[2]; mouse, in vivo, Table 5, screening half life (in parentheses), shorter test period, read-out: T ½ (Sc) hours, screening half life",11 h
Q(Kac)Y QPL DEL DK(4P)T LYD QFM LQQ G [Compound 4024],T ½ hours,"[2]; Table 5, half-life (value not in parentheses)",104 h
same,"T ½ (Sc) hours, screening half life","[2]; Table 5, screening half life (in parentheses), shorter test period",(27) hours
same,IC50,"[1]; Table 5, column P",17.4 nM
same,IC50,[3],207 nM

# Reference: patent US8937048B2, “Anti-angiogenic compounds” (Covx Technologies Ireland, Limited, priority 2008, dated 2015)
